One test relates to CCK-B receptors. Particulars: in words; cited from earlier work.
For a further test, the system named is gastrin receptors. The note with it: in words; cited from earlier work.
The target of test [1] is T1, CCK-B receptors (rat cerebral cortex) (Rattus norvegicus, UniProt P30553).
T1 construct: Cerebral cortex was minced in the same buffer, and homogenized with Polytron; from tissue; host or cells: cerebral cortex membrane fraction of Sprague-Dawley male rats
T1 sequence (P30553 1-452): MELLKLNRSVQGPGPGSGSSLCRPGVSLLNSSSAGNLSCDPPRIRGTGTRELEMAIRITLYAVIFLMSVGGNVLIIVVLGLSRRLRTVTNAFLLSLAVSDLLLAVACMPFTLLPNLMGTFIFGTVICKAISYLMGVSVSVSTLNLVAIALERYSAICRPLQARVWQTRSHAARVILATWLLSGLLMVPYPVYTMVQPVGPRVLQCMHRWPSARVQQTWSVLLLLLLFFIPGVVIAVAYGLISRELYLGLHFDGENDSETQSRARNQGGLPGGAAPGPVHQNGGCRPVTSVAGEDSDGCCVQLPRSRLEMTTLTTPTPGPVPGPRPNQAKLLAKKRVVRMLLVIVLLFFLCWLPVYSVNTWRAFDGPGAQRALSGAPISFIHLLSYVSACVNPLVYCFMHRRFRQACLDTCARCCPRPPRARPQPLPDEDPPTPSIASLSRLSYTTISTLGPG
The test is described as follows: CCK-B Receptor Binding Test in Rat Cerebral Cortex (Test Example 3). Also noted: species or system rat (Sprague-Dawley, male). The note with it: inhibition of specific 125I-CCK-8 sulfated binding (15 pM), 25° C., 120 min. As to the method: CCK-B Receptor Binding Test in Rat Cerebral Cortex
A rat cortical membrane fraction was prepared in accordance with the method of Chang, et al., Proc. Natl. Acad. Sci., U.S.A., 83, 4923 (1986). Sprague-Dawley male rats were sucrified and the brains were removed and immersed in a 50 mM Tris-HCl buffer (pH 7.4) under ice-cooling, and the cortex was dissected. Cerebral cortex was minced in the same buffer, and homogenized with Polytron. The homogenate was centrifuged at 2,500 g, and the supernatant was further centrifuged at 50,000 g. The pellet was resuspended in a reaction buffer solution (10 mM HEPES, 5 mM MgCl2, 1 mM EGTA, 130 mM NaCl; pH 6.5).
To 150 μl of the resulting rat cerebral cortex suspension were added 20 μl of ^125 I-CCK-8 sulfated (final concentration: 15 pM) and 10 μl of a test compound or a solvent (for total binding) or 1 μM CCK-8 sulfated (for nonspecific binding), and the reaction buffer solution was added there to make 1 ml. The reaction mixture was incubated at 25° C. for 120 minutes, followed by filtration through a GF/B filter (produced by Whatman). The radio-activity of the membrane fraction adsorbed onto the filter was measured with a gamma-counter.
The specific binding to CCK-B receptors was obtained from a difference between the total binding and the nonspecific binding. The IC50 of the test compound in inhibition of specific binding was calculated.

The subject of test [2] is gastric acid secretion. The test is described as follows: Inhibitory Activity on Gastric Acid Secretion in Pylorus Ligated Rats (Test Example 2). In kind it is in vivo, rat (Sprague-Dawley, male). Particulars: Rattus norvegicus, intraduodenal, 10 mg/kg, i.d., 4 h. As to the method:
Inhibitory Activity on Gastric Acid Secretion in Pyrolus Ligated Rats
Sprague-Dawley male rats weighing about 200 g were deprived of food for 24 hours while allowed water ad libitum. The abdomen was opened under anesthesia with ethyl ether, the pyrolus ligated, and the abdomen closed. The rats were deprived of food and water for 4 hours until they were surcrified with ethyl ether. The stomach was removed, and gastric juice was collected and measured. The gastric juice was centrifuged at 3000 rpm, and the supernatant was titrated up to pH 7.0 with 0.1N NaOH solution to obtain the acidity of the gastric juice. The amount of the gastric acid output was calculated by multiplying the gastric juice volume by the acidity, and the percent inhibition of acid secretion was obtained according to the following equation. A test compound, suspended in a 3% gum arabic solution, was administered intraduodenally at a dose of 2 ml/kg immediately after the pyrolus ligation.
Inhibition (%)=[(Average amount of gastric acid output in control group--Average amount of gastric acid output in test group)/Average amount of gastric acid secreted […]]×100

In test [3] the target is T2, gastrin receptors (guinea pig gastric glands) (Cavia porcellus, UniProt H0VZC5).
T2 construct: The gastric glands were isolated from the tissue with a pipette; from tissue; host or cells: isolated gastric glands from gastric mucosa of Hartley male guinea pigs
T2 sequence (H0VZC5 1-426): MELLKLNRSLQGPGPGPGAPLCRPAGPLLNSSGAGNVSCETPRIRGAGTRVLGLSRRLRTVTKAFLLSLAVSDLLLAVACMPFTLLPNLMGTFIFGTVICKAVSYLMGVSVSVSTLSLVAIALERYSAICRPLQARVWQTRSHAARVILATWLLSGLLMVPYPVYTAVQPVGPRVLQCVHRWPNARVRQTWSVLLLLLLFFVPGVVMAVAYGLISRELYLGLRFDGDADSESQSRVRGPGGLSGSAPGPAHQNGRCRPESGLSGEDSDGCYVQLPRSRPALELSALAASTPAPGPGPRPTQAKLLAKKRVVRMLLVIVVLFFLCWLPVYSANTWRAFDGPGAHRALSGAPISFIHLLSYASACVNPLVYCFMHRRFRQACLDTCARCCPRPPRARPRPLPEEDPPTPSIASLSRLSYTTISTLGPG
Put plainly: Gastrin Receptor Binding Test in Guinea Pig Gastric Glands (Test Example 1). Set-up: species or system guinea pig (Hartley, male). Particulars: inhibition of specific 125I-gastrin I human binding (22.5 pM), 25° C., 45 min. As to the method: Gastrin Receptor Binding Test in Guinea Pig Gastric Glands
Preparation of Gastric Glands:
Guinea pig gastric glands were prepared according to the method of Chang, et al., Biochem. Biophys. Res. Commun., 134, 895 (1986). The gastric mucosa of a Hartley male guinea pig was peeled off. After washing, the mucosa was minced with scissors in buffer A (Eagle's MEM containing 2 mM L-glutamine and 25 mM HEPES; pH 7.4). After washing, the minced tissue was incubated in buffer A containing 0.025% collagenase, 0.01% soy bean trypsin inhibitor, and 0.1% BSA at 37° C. for 60 minutes under 95% O2 and 5% CO2. The gastric glands were isolated from the tissue with a pipette, washed twice with buffer A, and filtered through a mesh. Then, the gastric glands were obtained by centrifugation.
Guinea pig gastric glands were resuspended in buffer B (Hank's solution containing 10 mM HEPES and 0.2% BSA; pH 7.4) (10 ml of buffer B per guinea pig).
To 200 μl of the suspension containing the resuspended isolated gastric glands were added 20 μl of ^125 I-gastrin I human (final concentration: 22.5 pM). Then, 10 μl of a test compound or a solvent (for total binding) or 10 μM Pentagastrin (for nonspecific binding), and buffer B was added there to make a total volume of 1 ml. The reaction mixture was incubated at 25° C. for 45 minutes and then centrifuged at 12000 g. The supernatant was removed by suction, and the radioactivity of the isolated gastric glands was measured with a gamma-counter.
The specific binding of gastrin to gastrin receptors was obtained from a difference between the total binding and the nonspecific binding. The IC50 of the test compound in inhibition of specific binding was calculated.

Test [4] has as its system gastric acid secretion. Particulars: in words; cited from earlier work.

On to `CCCN(CCC)C(=O)C(CCC(=O)O)NC(=O)c1ccccc1` (stereo not shown) [Proglumide], for which, in the test with CCK-B receptors, the “binding activity to CCK-B receptors” value is listed as “very weak”. Moreover, the “binding activity to gastrin receptors” value in the test on gastrin receptors is on record as “very weak”.

For `CCOC(CN1C(=O)C(CC(=O)Nc2ccc(C)cc2)(NC(=O)Nc2ccc(C)cc2)c2ccccc21)OCC` (racemic) [Example 71, (RS)-1-(2,2-Diethoxyethyl)-3-((4-methylphenyl)aminocarbonylmethyl)-3-(N'-(4-methylphenyl)ureido)indolin-2-one], the IC50 (in general, the midpoint of a concentration-inhibition curve) is 1.2 nM in test [1] and 1.1 nM in test [3]. In addition, the inhibition in vivo (as a rule, how much of the control response was suppressed) at 10 mg/kg in the test on gastric acid secretion [2] worked out at 48%.

Take `CCOC(CN1C(=O)C(CC(=O)Nc2cccc(C)c2)(NC(=O)Nc2ccc(C)cc2)c2ccccc21)OCC` (racemic) [Example 111, (RS)-1-(2,2-Diethoxyethyl)-3-((3-methylphenyl)aminocarbonylmethyl)-3-(N'-(4-methylphenyl)ureido)indolin-2-one]: the IC50 in test [1] was 0.35 nM; in test [3] it was 5.1 nM. In the test on gastric acid secretion [2], this compound had an inhibition in vivo at 10 mg/kg of 69%.

For the compound `CCOC(CN1C(=O)C(CC(=O)Nc2ccc(N(C)C)cc2)(NC(=O)Nc2ccc(C)cc2)c2ccccc21)OCC` (single isomer, unassigned; (+)) [Example 180, (+)-1-(2,2-Diethoxyethyl)-3-((4-(N,N-dimethylamino)phenyl)aminocarbonylmethyl)-3-(N'-(4-methylphenyl)ureido)indolin-2-one], the IC50 was found to be 0.36 nM in test [1] and 4.6 nM in test [3]. Testing at 10 mg/kg with gastric acid secretion [2] gave an inhibition in vivo of 73%.

As to `CCOC(CN1C(=O)C(CC(=O)Nc2ccc(C)cn2)(NC(=O)Nc2ccc(C)cc2)c2ccccc21)OCC` (single isomer, unassigned; (+)) [Example 179], the IC50 in test [1] turned out to be 0.14 nM; in test [3], 1.6 nM. In addition, the inhibition in vivo at 10 mg/kg with gastric acid secretion [2] worked out at 63%.

`Cc1cccc(NC(=O)N[C@@H]2N=C(c3ccccc3)c3ccccc3N(C)C2=O)c1` [L-365,260]: the “inhibitory activity on gastric acid secretion when administered in vivo” value with gastric acid secretion [4] is listed as “do not exert powerful inhibitory activity on gastric acid secretion”. Also, the “binding activity to gastrin receptors” value in the test with gastrin receptors was “high binding activity to gastrin receptors”.

Consider `CCOC(CN1C(=O)C(CC(=O)Nc2ccc(N(C)C)cc2)(NC(=O)Nc2cccc(OC)c2)c2ccccc21)OCC` (racemic) [Example 156], for which the IC50 in test [1] was 2.8 nM; in test [3] it was 6.5 nM. Moreover, testing at 10 mg/kg in the test with gastric acid secretion [2] gave an inhibition in vivo of 69%.

As for `CCOC(CN1C(=O)C(CC(=O)Nc2ccc(N(C)C)cc2)(NC(=O)Nc2cccc(OC)c2)c2ccccc21)OCC` (single isomer, unassigned; (+)) [Example 191], the figures for the 50% inhibitory concentration (IC50) in test [1] and in test [3] were 0.45 nM and 5.5 nM, respectively. Further, in the test on gastric acid secretion [2], the inhibition in vivo at 10 mg/kg turned out to be 78%.

For the compound `CCOC(CN1C(=O)C(CC(=O)Nc2ccc(Cl)cc2)(NC(=O)Nc2ccc(C)cc2)c2ccccc21)OCC` (racemic) [Example 114, (RS)-3-((4-Chlorophenyl)aminocarbonylmethyl)-1-(2,2-diethoxyethyl)-3-(N'-(4-methylphenyl)ureido)indolin-2-one], the figures for the IC50 in test [1] and in test [3] were 0.64 nM and 2.4 nM, respectively. In addition, in the test on gastric acid secretion [2], the inhibition in vivo at 10 mg/kg turned out to be 56%.

As for `CCOC(CN1C(=O)C(CC(=O)Nc2ccc(N(C)C)cc2)(NC(=O)Nc2ccc(C)cc2)c2ccccc21)OCC` (racemic) [Example 130, (RS)-1-(2,2-Diethoxyethyl)-3-((4-(N,N-dimethylamino)phenyl)aminocarbonylmethyl)-3-(N'-(4-methylphenyl)ureido)indolin-2-one], the figures for the IC50 in test [1] and in test [3] were 2.3 nM and 4.9 nM, respectively. Testing at 10 mg/kg in the test with gastric acid secretion [2] gave an inhibition in vivo of 71%.

As to `CCOC(CN1C(=O)C(CC(=O)Nc2ccc(C)cn2)(NC(=O)Nc2cccc(OC)c2)c2ccccc21)OCC` (racemic) [Example 158, (RS)-1-(2,2-Diethoxyethyl)-3-(N'-(3-methoxyphenyl)ureido)-3-((5-methylpyrido-2-yl)aminocarbonylmethyl)indolin-2-one], the concentration for half-maximal inhibition (IC50) came out at 0.56 nM in test [1] and 1.4 nM in test [3]. In the test on gastric acid secretion [2], this compound returned an inhibition in vivo at 10 mg/kg of 66%.

Consider `CCOC(CN1C(=O)C(CC(=O)Nc2ccc(C)cc2)(NC(=O)Nc2ccc(C#N)cc2)c2ccccc21)OCC` (racemic) [Example 92, (RS)-3-(N'-(4-Cyanophenyl)ureido)-1-(2,2-diethoxyethyl)-3-((4-methylphenyl)aminocarbonylmethyl)indolin-2-one], for which the concentration for half-maximal inhibition (IC50) in test [1] was 0.9 nM; in test [3], 4.3 nM. In addition, the inhibition in vivo at 10 mg/kg with gastric acid secretion [2] was found to be 57%.

Values taken from patent US5952511A, “Indolin-2-one derivatives” (Chugai Seiyaku Kabushiki Kaisha, priority 1993, dated 1999).
